ChEMBL document CHEMBL2346651, “Structure-activity relationship study of tachykinin peptides for the development of novel neurokinin-3 receptor selective agonists” (Bioorg Med Chem, 2013)
Residues, ends and D or L forms follow the SMILES beside them.

Legend:
[1] = molecular target: T1, Substance-K receptor (Homo sapiens) (UniProt P21452); test: Displacement of [125I]-NKA from NK2R (unknown origin) transfected in CHO cells at 10 uM by gamma counting analysis; format: cell-based
T1 sequence (whole entry): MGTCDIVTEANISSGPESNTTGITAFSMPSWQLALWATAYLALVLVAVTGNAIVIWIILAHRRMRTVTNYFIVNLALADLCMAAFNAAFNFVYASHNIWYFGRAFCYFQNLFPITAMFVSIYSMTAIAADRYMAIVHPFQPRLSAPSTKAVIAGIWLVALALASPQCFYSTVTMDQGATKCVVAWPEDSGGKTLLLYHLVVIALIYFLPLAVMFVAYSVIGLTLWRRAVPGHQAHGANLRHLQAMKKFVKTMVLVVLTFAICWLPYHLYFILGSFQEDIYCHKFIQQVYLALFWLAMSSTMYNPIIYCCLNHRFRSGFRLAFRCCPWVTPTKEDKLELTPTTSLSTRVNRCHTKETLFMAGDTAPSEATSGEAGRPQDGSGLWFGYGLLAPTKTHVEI

[2] = molecular target: Substance-P receptor (Homo sapiens) (UniProt P25103); test: Displacement of [125I]-BH-SP from NK1R (unknown origin) transfected in CHO cells at 10 uM by gamma counting analysis; format: cell-based
Neuromedin-K receptor [3] = molecular target: T2, Neuromedin-K receptor (Homo sapiens, UniProt P29371); test: Displacement of ([125I]-His3, MePhe7)-NKB from NK3R (unknown origin) transfected in CHO cells by gamma counting analysis; format: cell-based
T2 sequence (P29371 whole entry): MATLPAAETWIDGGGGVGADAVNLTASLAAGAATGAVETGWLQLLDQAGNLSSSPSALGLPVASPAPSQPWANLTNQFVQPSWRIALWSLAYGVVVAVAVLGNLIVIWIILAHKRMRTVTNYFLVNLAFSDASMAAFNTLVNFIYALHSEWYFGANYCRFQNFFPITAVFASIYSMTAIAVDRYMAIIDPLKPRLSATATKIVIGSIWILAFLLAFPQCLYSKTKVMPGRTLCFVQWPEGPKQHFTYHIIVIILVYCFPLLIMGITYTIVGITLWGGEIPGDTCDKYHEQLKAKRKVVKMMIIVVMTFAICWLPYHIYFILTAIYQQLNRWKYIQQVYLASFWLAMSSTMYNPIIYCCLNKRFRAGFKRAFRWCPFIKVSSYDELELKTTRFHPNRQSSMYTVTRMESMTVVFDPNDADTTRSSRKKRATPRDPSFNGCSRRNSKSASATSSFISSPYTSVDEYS

Neuromedin-K receptor [4] = molecular target: T2, Neuromedin-K receptor; test: Agonist activity at NK3R (unknown origin) transfected in CHO cells assessed as calcium influx […]; format: functional, cell-based

Chain of Substance-P receptor (Homo sapiens) (P25103 whole entry): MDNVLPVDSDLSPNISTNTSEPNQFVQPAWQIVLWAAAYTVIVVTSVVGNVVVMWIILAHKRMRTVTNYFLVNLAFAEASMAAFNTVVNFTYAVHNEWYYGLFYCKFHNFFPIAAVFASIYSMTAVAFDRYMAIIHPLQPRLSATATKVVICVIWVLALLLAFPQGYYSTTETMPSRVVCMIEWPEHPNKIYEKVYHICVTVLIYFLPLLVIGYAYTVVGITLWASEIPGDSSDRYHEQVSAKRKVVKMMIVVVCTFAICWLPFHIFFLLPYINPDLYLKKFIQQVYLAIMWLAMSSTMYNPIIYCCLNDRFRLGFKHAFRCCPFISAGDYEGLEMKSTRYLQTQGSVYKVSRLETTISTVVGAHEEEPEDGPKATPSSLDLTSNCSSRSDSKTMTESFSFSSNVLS

| inhibition [1] | inhibition [2] | IC50 (Neuromedin-K receptor [3]) | EC50 (Neuromedin-K receptor [4]) | Structure (SMILES) |
| --- | --- | --- | --- | --- |
| 35% | < 10% | 4 nM | 0.06 nM | CC[C@H](C)[C@H](NC(=O)[C@H](CC(=O)O)NC(=O)[C@H](Cc1cnc[nH]1)NC(=O)[C@H](CCSC)NC(=O)[C@@H](N)CC(=O)O)C(=O)N[C@@H](Cc1ccccc1)C(=O)N(C)[C@@H](Cc1ccccc1)C(=O)NCC(=O)N[C@@H](CC(C)C)C(=O)N[C@@H](CCSC)C(N)=O (HELM PEPTIDE1{D.M.H.D.I.F.[meF].G.L.M.[am]}$$$$V2.0) |
| 56% | 91% | 35 nM | 0.0054 nM | CC[C@H](C)[C@H](NC(=O)[C@H](Cc1ccccc1)NC(=O)[C@H](CC(=O)O)NC(=O)[C@H](CC(=O)O)NC(=O)[C@H](CCCCN)NC(=O)[C@H](CO)NC(=O)[C@@H]1CCCN1C(=O)[C@@H]1CCC(=O)N1)C(=O)NCC(=O)N[C@@H](CC(C)C)C(=O)N[C@@H](CCSC)C(N)=O (HELM PEPTIDE1{[Glp].P.S.K.D.D.F.I.G.L.M.[am]}$$$$V2.0) |
| < 10% | < 10% | 17 nM | 0.13 nM | CSCC[C@H](NC(=O)[C@H](CC(C)C)NC(=O)CNC(=O)[C@H](Cc1ccccc1)N(C)C(=O)[C@H](Cc1ccccc1)NC(=O)[C@H](CC(=O)O)NC(=O)[C@H](CC(N)=O)NC(=O)[C@@H]1CCCN1C(=O)[C@H](CO)NC(=O)[C@@H]1CCCN1C(=O)[C@@H]1CCC(=O)N1)C(N)=O (HELM PEPTIDE1{[Glp].P.S.P.N.D.F.[meF].G.L.M.[am]}$$$$V2.0) |
| 29% | < 10% | 6.9 nM | 0.051 nM | CSCC[C@H](NC(=O)[C@H](CC(C)C)NC(=O)CNC(=O)[C@H](Cc1ccccc1)N(C)C(=O)[C@H](Cc1ccccc1)NC(=O)[C@H](CC(C)C)NC(=O)[C@H](CC(=O)O)NC(=O)[C@H](Cc1cnc[nH]1)NC(=O)[C@H](CCSC)NC(=O)[C@@H](N)CC(=O)O)C(N)=O (HELM PEPTIDE1{D.M.H.D.L.F.[meF].G.L.M.[am]}$$$$V2.0) |
| 11% | 46% | 13 nM | 0.038 nM | CSCC[C@H](NC(=O)[C@H](CC(C)C)NC(=O)CNC(=O)[C@H](Cc1ccccc1)N(C)C(=O)[C@H](Cc1ccccc1)NC(=O)[C@H](CCC(N)=O)NC(=O)[C@H](CC(=O)O)NC(=O)[C@H](CO)NC(=O)[C@H](CCCCN)NC(=O)[C@@H]1CCCN1C(=O)[C@@H](NC(=O)[C@@H](N)CC(=O)O)C(C)C)C(N)=O (HELM PEPTIDE1{D.V.P.K.S.D.Q.F.[meF].G.L.M.[am]}$$$$V2.0) |
| 26% | 48% | 7 nM | 0.071 nM | CSCC[C@H](NC(=O)[C@H](CC(C)C)NC(=O)CNC(=O)[C@H](Cc1ccccc1)N(C)C(=O)[C@H](Cc1ccccc1)NC(=O)[C@H](C)NC(=O)[C@H](CC(=O)O)NC(=O)[C@H](CCCCN)NC(=O)[C@H](CO)NC(=O)[C@@H]1CCCN1C(=O)[C@@H]1CCC(=O)N1)C(N)=O (HELM PEPTIDE1{[Glp].P.S.K.D.A.F.[meF].G.L.M.[am]}$$$$V2.0) |
| 92% | 94% | 53 nM | 0.079 nM | CSCC[C@H](NC(=O)[C@H](CC(C)C)NC(=O)CNC(=O)[C@@H](NC(=O)[C@H](Cc1ccccc1)NC(=O)[C@H](CCC(=O)O)NC(=O)[C@H](CC(=O)O)NC(=O)[C@@H]1CCCN1C(=O)[C@H](CC(N)=O)NC(=O)[C@@H]1CCCN1C(=O)[C@@H]1CCC(=O)N1)C(C)C)C(N)=O (HELM PEPTIDE1{[Glp].P.N.P.D.E.F.V.G.L.M.[am]}$$$$V2.0) |
| 33% | < 10% | 4.4 nM | 0.012 nM | CSCC[C@H](NC(=O)[C@H](CC(C)C)NC(=O)CNC(=O)[C@H](Cc1ccccc1)N(C)C(=O)[C@H](Cc1ccccc1)NC(=O)[C@H](C)NC(=O)[C@H](CC(=O)O)NC(=O)[C@H](Cc1cnc[nH]1)NC(=O)[C@H](CCSC)NC(=O)[C@@H](N)CC(=O)O)C(N)=O (HELM PEPTIDE1{D.M.H.D.A.F.[meF].G.L.M.[am]}$$$$V2.0) |
